The values below come from US20150126467A1, “USE OF ALGINATE OLIGOMERS TO ENHANCE THE EFFECTS OF ANTIFUNGAL AGENTS” (AlgiIPharma AS, priority 2011, published 2015).

≈ marks a conversion by molar mass, not a printed value. Like-named read-outs stand apart in the source and are kept apart here. Where only a bound is given, the exact number is not on record here.

The test system of data set [1] is Aspergillus flavus CCUG 28296. As to the kind of experiment: Robotic MIC assay, Aspergillus (Example 4). It is filed as cell-based. The conditions noted are these: Aspergillus flavus, CCUG23451 / CCUG28296, 48 h, Mueller-Hinton broth, read-out: Minimum Inhibitory Concentration (MIC). The procedure:
(§1) Aspergillus sp. was grown at 30° C. for 96 h on YM-agar. Spores and aerial mycelium was cut out from the agar, suspended in 1 ml YM-broth and dispersed with glass beads (1 mm) in a mini bead beater for 2 min. Glycerol was added to the suspension to 10% and frozen at −80° C.
(§2) Each batch of frozen stock culture was then characterized in separate growth experiments using Mueller-Hinton broth to determine the minimum amount of inoculum giving satisfactory growth after 48 h under the conditions relevant for the MIC assay. This inoculation procedure is used in order to reduce day to day variation in bioassays.
(§3) Robotic minimum inhibitory concentration (MIC) assay was performed as follows. OligoG CF-5/20 was dissolved in medium (Mueller-Hinton broth) to 1.25 times of the desired assay concentrations (2, 6 and 10%). […].
(§4) Two-fold serial dilutions of antifungal agents were made in medium with different concentrations of OligoG CF-5/20, and the solutions were placed in four parallel wells in Nunc 384-well micro plates (30 μl per well in Nunc 242757 microplates). A group of 8 wells with no addition of antifungal agents for each OligoG CF-5/20 concentration was included on each micro plate as growth reference. Each well in the 384-well assay plates was added 7.5 μl of the MH medium inoculated with frozen stock culture of the relevant strains.
(§5) The microplates were placed in plastic bags and incubated without shaking at 34° C. The optical density at 600 nm in the microwells was measured after approximately 24 and 48 hours of incubation. […]

Data set [2] relates to Aspergillus niger CCUG 18919. Briefly: Robotic MIC assay, Aspergillus (Example 4). It is filed as cell-based. Particulars: Aspergillus niger, CCUG18919, 48 h, Mueller-Hinton broth, read-out: Minimum Inhibitory Concentration (MIC). How it is done:
as §1, §2, §3, §4, §5

Data set [3] deals with Aspergillus fumigatus CCUG 17460. As to the kind of experiment: Robotic MIC assay, Aspergillus (Example 4). The class given is cell-based. The conditions noted are these: Aspergillus fumigatus, CCUG17460, 48 h, Mueller-Hinton broth, read-out: Minimum Inhibitory Concentration (MIC). The procedure: as §1, §2, §3, §4, §5
The subject of data set [4] is various Aspergillus species. Briefly: Robotic MIC assay, summary over species (Example 4). The class given is cell-based. Particulars: Aspergillus species tested. The procedure: as §1, §2, §3, §4, §5
A further data set relates to Candida albicans. Briefly: Robotic MIC assay with asthma/COPD medicaments (Example 5). The conditions noted are these: for effect on growth of C. albicans: at the given concentrations, data not shown; for influence on the MIC values of nystatin or amphotericin B in combination with OligoG CF5/20: ipratropium bromide and salbutamol at 0.01 mM and 1 mM, budesonide at 0.01 mM, formoterol at 0.5 mM. The class given is cell-based. How it is done: A robotic MIC Assay was performed as follows. OligoG CF-5/20 were dissolved in medium (Mueller-Hinton broth or M19 broth depending on experiment) to 1.25 times of the desired assay concentrations (2, 6 and 10%). The antifungal agents under test were dissolved in medium without OligoG CF-5/20 and in medium with OligoG CF-5/20 at a concentration of 1.25 times the highest desired assay concentrations. For experiments where the effect of adding different concentrations of Na^+ was investigated, NaCl was dissolved in medium to the desired concentrations (10, 30 and 50 mM).
Two-fold serial dilutions of antifungal agents were made in medium with different concentrations of OligoG CF-5/20, and the solutions were placed in four parallel wells in Nunc 384-well micro plates (30 μl per well in Nunc 242757 microplates). A group of 8 wells with no addition of antifungal agents for each OligoG CF-5/20 concentration was included on each microplate as growth reference. To each well in the 384-well assay plates was added 7.5 μl of medium inoculated with a frozen stock culture of Candida albicans (strain CCUG 39343).
The micro plates were placed in plastic bags and incubated without shaking at 34° C. The optical density at 600 nm in the microwells was measured after approximately 13, 18, 24 and 34 hours of incubation, and the relative growth yield in each well was calculated based on the growth in the reference groups.
The robotic assay described in Example 1 was employed in this Example. […] The concentration utilized for the different components were based on information from Manocha et al. (2006).
In this assay only Mueller-Hinton broth was used since this is the medium specified for standardized MIC assays (Jorgensen et al., 1999).

The conditions of data set [5]: cited from earlier work.

Turning to `C[C@@H](c1ncncc1F)[C@](O)(Cn1cncn1)c1ccc(F)cc1F` [Voriconazole, voriconazole], the MIC is 0.0625 µg/mL (≈ 0.179 µM) in data set [1] (A. flavus CCUG 23451, 0% OligoG); 0.0625 µg/mL (≈ 0.179 µM) in data set [1] (A. flavus CCUG 23451, 2% OligoG); < 0.0312 µg/mL in data set [1] (A. flavus CCUG 23451, 6% OligoG); < 0.0312 µg/mL in data set [1] (A. flavus CCUG 23451, 10% OligoG); 0.25 µg/mL (≈ 0.716 µM) in data set [2] (A. niger CCUG 18919, 0% OligoG); 0.0625 µg/mL (≈ 0.179 µM) in data set [2] (A. niger CCUG 18919, 2% OligoG). Moreover, the MIC is < 0.0312 µg/mL in data set [2] (A. niger CCUG 18919, 6% OligoG); < 0.0312 µg/mL in data set [2] (A. niger CCUG 18919, 10% OligoG); 0.125 µg/mL (≈ 0.358 µM) in data set [3] (A. fumigatus CCUG 17460, 0% OligoG); 0.125 µg/mL (≈ 0.358 µM) in data set [3] (A. fumigatus CCUG 17460, 2% OligoG); 0.0625 µg/mL (≈ 0.179 µM) in data set [3] (A. fumigatus CCUG 17460, 6% OligoG); 0.0312 µg/mL (≈ 0.0895 µM) in data set [3] (A. fumigatus CCUG 17460, 10% OligoG). In data set [4], the “effect of addition of OligoG CF-5/20 on MIC values” is “reduction in MIC values”.

Regarding `CC(C)[N+]1(C)[C@@H]2CC[C@H]1C[C@@H](OC(=O)C(CO)c1ccccc1)C2.O.[Br-]` (stereo partly shown) [Ipratropium bromide, ipratropium bromide monohydrate], in the data set on Candida albicans, the “effect on growth of C. albicans” value is listed as “did not affect growth” and the “influence on the MIC values of nystatin or amphotericin B in combination with OligoG CF5/20” value is reported as “do not significantly influence”.

Consider `CC(C)(C)NCC(O)c1ccc(O)c(CO)c1` (stereo not shown) [salbutamol], for which the solubility in water result in data set [5] was “soluble in water”. In addition, in the data set with Candida albicans, the “effect on growth of C. albicans” value is reported as “did not affect growth” and the “influence on the MIC values of nystatin or amphotericin B in combination with OligoG CF5/20” value was “do not significantly influence”.

`CCCC1O[C@@H]2C[C@H]3[C@@H]4CCC5=CC(=O)C=C[C@]5(C)[C@H]4[C@@H](O)C[C@]3(C)[C@]2(C(=O)CO)O1` (stereo partly shown) [budesonide]: in data set [5], the solubility in water entry is “limited solubility in water”.
